Laboratory results reported in patent US20100075917A1, “THIONUCLEOSIDES AND PHARMACEUTICAL APPLICATIONS” (priority 2006, published 2010).
Like-named read-outs stand apart in the source and are kept apart here.

Experiments:
HIV-1 = assay: Anti-HIV-1 effect in CEM cells; assay type: cell-based
Procedure: (§1) The evaluation test is described in Roy, B.; Chambert, S.; Lepoivre M.; Aubertin, A.-M.; Balzarini, J.; Décout, J.-L., Deoxyribonucleoside 2′- or 3′-mixed disulfides: prodrugs to target ribonucleotide reductase and/or to inhibit HIV reverse transcription. J. Med. Chem. 2003, 46, 2565-2568.
(§2) The toxicity and the antiviral activities were measured at different concentrations, and their evolution as a function of the concentration makes it possible to evaluate: • the concentration at which 50% of the cells are dead in the absence of virus (CC 50) for each of the test compounds, from the change in absorbance at 540 nm of formazan as a function of the concentration of test compound, • the concentration of compound that leads to a 50% reduction in the activity of viral reverse transcriptase (EC 50). This concentration is determined from the curve representing the change in the percentage of “remaining reverse transcriptase” activity (defined as being the ratio of the activity of the reverse transcriptase in the presence of the test compound to that of the untreated cells) as a function of the concentration of test compound.
(§3) EC50: concentration required to afford 50% protection to the CEM cells against the cytopathogenicity of HIV;

HIV-2 [1] = assay: Anti-HIV-2 effect in CEM cells; assay type: cell-based; conditions: CEM cells, read-out: EC50 HIV-2
Procedure: as §1, §2, §3

[2] = test system: L1210/0 murine leukemia cells; assay: Cytotoxic effect on L1210/0 cells; assay type: cell-based; conditions: Tables 5 and 7, L1210/0 cells
[3] = test system: FM3A/0 murine mammary carcinoma cells; assay: Cytotoxic effect on FM3A/0 cells; assay type: cell-based; parameters: unit not given beside the values; conditions: Tables 5 and 7, FM3A/0 cells
human Molt4/C8 cells = assay: Cytotoxic effect on Molt4/C8 cells; assay type: cell-based; conditions: Tables 5 and 7, Molt4/C8 cells
human CEM T4 lymphocytes = assay: Cytotoxic effect on CEM T4 lymphocytes; assay type: cell-based; parameters: unit not given beside the values; conditions: Tables 5 and 7, CEM cells
HeLa cells = assay: Cytotoxic effect on HeLa cells; assay type: cell-based; parameters: unit not given beside the values; conditions: Tables 5 and 7, HeLa cells
HIV-2 [4] = assay: Anti-HIV-2 effect in CEM/TK− cells; assay type: cell-based; conditions: Human immunodeficiency virus 2, CEM-TK(-); Third Series; CEM cells having no thymidine kinase activity
Procedure: as §1, §2, §3
• Effect in CEM not expressing thymidine kinase activity (CEM/TK^−, cells having no thymidine kinase activity).

human CEM cells = assay: Cytotoxicity (MTT) on CEM cells; assay type: cell-based; conditions: CCRF-CEM; for EC50: Tables 4 and 6, CEM cells, some values 'then plateau'; for CC50: read-out: CC50 CEM
Procedure: (§4) The cytotoxic effect of a compound is studied on human CEM cells and MCF-7 mammary carcinoma cells that are or are not resistant to gemcitabine, which is an anticancer nucleoside used in chemotherapy.
(§5) The cytotoxicity (CC50) was estimated by measuring the reduction of 3-(4,5-dimethylthiazol-2-yl)-2,5-diphenyltetrazolium bromide (MTT), which is converted into insoluble violet formazan. To do this, 100 000 cells (human CEM-SS or MCF-7 lines) are inoculated per well in 100 μl of culture medium, in 96-well microtitration plates. After 24 hours, the test products are added in 100 μl and incubation is continued for 48 to 72 hours. MIT is then added in a proportion of 20 μl of a solution at 5 mg/ml in PBS. Three hours later, 100 μl of a DMF/acetic acid/HCl/SDS (sodium dodecyl sulfate) solution are added. After 3 hours at 37° C., the absorbance of the formazan is measured at 590 nm and compared with that of the untreated control.

Moloney sarcoma virus = assay: Inhibition of transformation of mouse embryo C3H/3T3 cells induced by Moloney sarcoma virus; assay type: cell-based; parameters: MIC (minimum inhibitory concentration): unit not given here; conditions: for MIC (minimum inhibitory concentration): C3H/3T3 cells, a second bound is given in brackets for some compounds
Description: 2.2. Inhibitory Effect on the Transformation of Mouse Embryo C3H/3T3 Cells Induced by Moloney Sarcoma Virus (Model of Infection with HIV)

[5] = test system: MCF-7 mammary carcinoma cells; assay: Cytotoxicity (MTT) on MCF-7 cells; assay type: cell-based, human; conditions: for CC50: Homo sapiens, MCF7, read-out: CC50 MCF-7
Procedure: as §4, §5

[6] = Human immunodeficiency virus 1, CCRF-CEM, Third Series, read-out: EC50 HIV-1
[7] = Human immunodeficiency virus 2, CCRF-CEM, Third Series
[8] = transformation of C3H/3T3 cells induced by Moloney sarcoma virus, read-out: EC50 (effective concentration 50%)

Work on `C[C@H](Cn1cnc2c(N)ncnc21)OCP(=O)(O)O` [Tenofovir, reference compound] yielded an EC50 (HIV-1; First and Second Series, first table, read-out: EC50 HIV-1) of 5.5 µM and an EC50 (HIV-2 [1]; First and Second Series, first table) of 2.6 µM.

For `O=c1ccn([C@@H]2O[C@H](CO)C=C2SSc2ccccc2[N+](=O)[O-])c(=O)[nH]1` [Compound 17, 2′,3′-didehydro-2′,3′-dideoxyuridin-2′-yl 2-nitrophenyl disulfide], the “cytotoxic effect, L1210/0” value [2] was 43 ± 5, the “cytotoxic effect, FM3A/0” value [3] was 206 ± 25 and the “cytotoxic effect, Molt4/C8” value (human Molt4/C8 cells) was 42 ± 1. For the same compound, the “cytotoxic effect, CEM” value (human CEM T4 lymphocytes) was 40 ± 4, the “cytotoxic effect, HeLa” value (HeLa cells) was 29 ± 9 and the EC50 (HIV-1; [6]) was 6.5 ± 4.9 µM. The EC50 (HIV-2 [1]; [7]) was ≥ 10 µM and the EC50 (HIV-2 [4]) was > 10 µM.

For `CSS[C@H]1C[C@H](n2ccc(N)nc2=O)O[C@@H]1CO` [Compound 19, 2′,3′-Dideoxycytidin-3′-yl methyl disulfide], the EC50 (human CEM cells; Homo sapiens) was > 200 µM, the EC50 (HIV-1; [6]) was 20 ± 7 µM and the EC50 (HIV-1; Human immunodeficiency virus 1, CCRF-CEM, read-out: EC50 HIV-1, First and Second Series, first table) was 3.3 ± 2.3 µM. It also gave an EC50 (HIV-2 [1]; Human immunodeficiency virus 2, CCRF-CEM, First and Second Series, first table) of 10.5 ± 9.3 µM, an EC50 (HIV-2 [1]; [7]) of 20 ± 7 µM and an EC50 (HIV-2 [4]) of 45 ± 21 µM. For the same compound, the EC50 (Moloney sarcoma virus; C3H/3T3, read-out: EC50 (effective concentration 50%)) was 48 ± 2 µM and the “MIC (minimum inhibitory concentration)” value (Moloney sarcoma virus) was >100.

`Cc1cn([C@@H]2O[C@H](CO)C=C2S(=O)(=O)CC[Si](C)(C)C)c(=O)[nH]c1=O` [Compound 7, 2′,3′-Didehydro-2′,3′-dideoxy-2′-(2-trimethylsilyl)ethylthiothymidine sulfone] showed a CC50 (human CEM cells; Homo sapiens) of 63 µM and a CC50 [5] of 120 µM.

With `CSC1=C[C@@H](CO)O[C@H]1n1ccc(=O)[nH]c1=O` [Compound 31, 2′,3′-didehydro-2′,3′-dideoxy-2′-methylthiouridine] the EC50 (HIV-1; [6]) was ≥ 10 µM, the EC50 (HIV-2 [1]; [7]) was 6.5 ± 0.7 µM and the EC50 (HIV-2 [4]) was > 10 µM.

`CC(C)CCSC1=C[C@@H](CO)O[C@H]1n1ccc(=O)[nH]c1=O` [Compound 2] was tested, and the CC50 (human CEM cells; Table 3, MTT, human CEM cells) was > 200 µM and the CC50 [5] was > 200 µM.

With `C[Si](C)(C)CCSC1=C[C@@H](CO)O[C@H]1n1ccc(N)nc1=O` [Compound 5, 2′,3′-Didehydro-2′,3′-dideoxy-2′-(2-trimethylsilyl)ethylthiocytidine] the CC50 (human CEM cells; Homo sapiens) was 217 µM and the “cytotoxicity at 200 μM, MCF-7” value [5] was 41%.

`C[Si](C)(C)CC[S+]([O-])C1=C[C@@H](CO)O[C@H]1n1ccc(=O)[nH]c1=O` (stereo partly shown) [Compound 8, 2′,3′-Didehydro-2′,3′-dideoxy-2′-(2-trimethylsilyl)ethylthiouridine sulfoxide] was tested, and the CC50 (human CEM cells; Homo sapiens) was > 200 µM.

In the case of `Cc1cn(C2OC(CO)C=C2SSc2ccc([N+](=O)[O-])cc2)c(=O)[nH]c1=O` (stereo not shown) [Compound 14, 2′,3′-didehydro-2′,3′-dideoxythymidin-2′-yl 4-nitrophenyl disulfide], the “cytotoxic effect, L1210/0” value [2] is reported as 31 ± 3, the “cytotoxic effect, FM3A/0” value [3] is reported as 39 ± 3 and the “cytotoxic effect, Molt4/C8” value (human Molt4/C8 cells) is reported as 12 ± 5. For the same compound, the “cytotoxic effect, CEM” value (human CEM T4 lymphocytes) was 31 ± 1, the “cytotoxic effect, HeLa” value (HeLa cells) was 7.4 ± 1.6 and the “MIC (minimum inhibitory concentration)” value (Moloney sarcoma virus) was 100. The EC50 (Moloney sarcoma virus; [8]) was 15 µM.

For `Cc1cn(C2OC(CO)C=C2SSc2ccccc2[N+](=O)[O-])c(=O)[nH]c1=O` (stereo not shown) [Compound 15, 2′,3′-didehydro-2′,3′-dideoxythymidin-2′-yl 2-nitrophenyl disulfide], the “cytotoxic effect, L1210/0” value [2] was 42 ± 3, the “cytotoxic effect, FM3A/0” value [3] was 175 ± 30 and the “cytotoxic effect, Molt4/C8” value (human Molt4/C8 cells) was 30 ± 15. For the same compound, the “cytotoxic effect, CEM” value (human CEM T4 lymphocytes) was 28 ± 0, the “cytotoxic effect, HeLa” value (HeLa cells) was 31 ± 1 and the “MIC (minimum inhibitory concentration)” value (Moloney sarcoma virus) was 100. It also gave an EC50 (Moloney sarcoma virus; [8]) of 8.3 ± 0.4 µM.

`O=c1ccn([C@@H]2O[C@H](CO)C=C2SSc2ccc([N+](=O)[O-])cc2)c(=O)[nH]1` [Compound 16, 2′,3′-didehydro-2′,3′-dideoxyuridin-2′-yl 4-nitrophenyl disulfide] was tested, and the “cytotoxic effect, L1210/0” value [2] was 42 ± 4, the “cytotoxic effect, FM3A/0” value [3] was 45 ± 2 and the “cytotoxic effect, Molt4/C8” value (human Molt4/C8 cells) was 28 ± 10. For the same compound, the “cytotoxic effect, CEM” value (human CEM T4 lymphocytes) was 41 ± 1, the “cytotoxic effect, HeLa” value (HeLa cells) was 16 ± 2 and the EC50 (HIV-1; [6]) was 37.5 ± 17.7 µM. It also gave an EC50 (HIV-2 [1]; [7]) of 9.5 ± 7.8 µM and an EC50 (HIV-2 [4]) of 32.5 ± 25 µM.

With `Nc1ncnc2c1ncn2CCOCP(=O)(O)O` [PMEA, reference compound] the EC50 (Moloney sarcoma virus; [8]) was 0.53 ± 0.13 µM.

With `Cc1cn([C@H]2C[C@H](SSc3ccccc3[N+](=O)[O-])[C@@H](CO)O2)c(=O)[nH]c1=O` [Compound 26, 3′-deoxythymidin-3′-yl 2-nitrophenyl disulfide] the “cytotoxic effect, L1210/0” value [2] was 33 ± 7, the “cytotoxic effect, FM3A/0” value [3] was 220 ± 19 and the “cytotoxic effect, Molt4/C8” value (human Molt4/C8 cells) was 31 ± 5. For the same compound, the “cytotoxic effect, CEM” value (human CEM T4 lymphocytes) was 32 ± 1, the “cytotoxic effect, HeLa” value (HeLa cells) was 15 ± 0 and the “MIC (minimum inhibitory concentration)” value (Moloney sarcoma virus) was 20. It also gave an EC50 (Moloney sarcoma virus; [8]) of 1.1 ± 0.8 µM.

In the case of (R)-PMEA [reference compound], the “MIC (minimum inhibitory concentration)” value (Moloney sarcoma virus) is reported as >10 and the EC50 (Moloney sarcoma virus; [8]) is reported as 0.23 ± 0.03 µM.

With `Cc1cn([C@@H]2O[C@H](CO)C=C2SSc2ccccc2[N+](=O)[O-])c(=O)[nH]c1=O` [Compound 11] the EC50 (human CEM cells; Homo sapiens) was > 200 µM.

Work on `Cc1cn([C@@H]2O[C@H](CO)C=C2SSC(Cl)(Cl)Cl)c(=O)[nH]c1=O` [Compound 12, 2′,3′-didehydro-2′,3′-dideoxythymidin-2′-yl trichloromethyl disulfide] yielded an EC50 (human CEM cells; Homo sapiens) of 46 µM.

For `Cc1cn([C@@H]2O[C@H](CO)C=C2[S+]([O-])CC[Si](C)(C)C)c(=O)[nH]c1=O` (stereo partly shown) [Compound 6, 2′,3′-Didehydro-2′,3′-dideoxy-2′-(2-trimethylsilyl)ethylthiothymidine sulfoxide], the CC50 (human CEM cells; Homo sapiens) was > 200 µM.

For `Cc1cn([C@H]2C=C(SCC[Si](C)(C)C)[C@@H](CO)O2)c(=O)[nH]c1=O` [Compound 4, 2′,3′-didehydro-2′,3′-dideoxy-3′-(2-trimethylsilyl)ethylthiothymidine], the CC50 (human CEM cells; Homo sapiens) was 82 µM and the “cytotoxicity at 200 μM, MCF-7” value [5] was 33%.

`Cc1cn([C@H]2C[C@H](SSCCCCCCO)[C@@H](CO)O2)c(=O)[nH]c1=O` [Compound 30, 3′-deoxythymidin-3′-yl 6-hydroxyhexyl disulfide] was tested, and the EC50 (HIV-1; [6]) was 3 µM, the EC50 (HIV-2 [1]; [7]) was 4.5 ± 2.1 µM and the EC50 (HIV-2 [4]) was > 10 µM.

`CSS[C@H]1C[C@H](n2cc(Br)c(=O)[nH]c2=O)O[C@@H]1CO` [Compound 23, 5-Bromo-2′,3′-dideoxyuridin-3′-yl methyl disulfide] gave an EC50 (human CEM cells; Homo sapiens) of 66 µM.

In the case of `Cc1cn([C@H]2C[C@H](SSc3ccc([N+](=O)[O-])cc3)[C@@H](CO)O2)c(=O)[nH]c1=O` [Compound 25, 3′-deoxythymidin-3′-yl 4-nitrophenyl disulfide], the “cytotoxic effect, L1210/0” value [2] is reported as 32 ± 3, the “cytotoxic effect, FM3A/0” value [3] is reported as 148 ± 16 and the “cytotoxic effect, Molt4/C8” value (human Molt4/C8 cells) is reported as 29 ± 2. For the same compound, the “cytotoxic effect, CEM” value (human CEM T4 lymphocytes) was 34 ± 0, the “cytotoxic effect, HeLa” value (HeLa cells) was 28 ± 12 and the “MIC (minimum inhibitory concentration)” value (Moloney sarcoma virus) was 20. The EC50 (Moloney sarcoma virus; [8]) was 0.89 ± 0.36 µM.
